Laboratory results as given in ChEMBL document CHEMBL3885861, “Open TG-GATES”.

Species: Rattus norvegicus
Test: Open TG-GATES - Regimen: Daily Repeat
Type: toxicity, organism-based, Sprague-Dawley
Set-up: regimen Daily Repeat, gender Male, age 6 weeks
Conditions: in vivo, po, 0 mg/kg, route gavage, dose level Control; for APTT / Bas / Eos / Fbg / Hb / Ht / Lym / MCH / MCHC / MCV / Mono / Neu / PT / Plat / RBC / Ret / WBC: tissue Blood; for KIDNEY_L / KIDNEY_R / KIDNEY_TOTAL: tissue Kidney; for LIVER: tissue Liver; for ALP / ALT / AST / BUN / CRE / DBIL / GLC / IP / K / LDH / Na / PL / RALB / TBIL / TC / TG / TP / gamma-GTP: tissue Plasma

`CC(CCc1ccccc1)NCC(O)c1ccc(O)c(C(N)=O)c1` (stereo not drawn) [LABETALOL] showed a TERMINAL_BW (72 h, time 3 day) of 252.2 g, an APTT (72 h, time 3 day) of 16.5 s and a Bas (72 h, time 3 day) of 0%. It also gave an Eos (72 h, time 3 day) of 1%, a Fbg (72 h, time 3 day) of 295.4 mg/dL and a Hb (72 h, time 3 day) of 13.4 g/dL. The Ht (72 h, time 3 day) was 38.9%, the Lym (72 h, time 3 day) was 75.4% and the MCH (72 h, time 3 day) was 21.3 pg. The MCHC (72 h, time 3 day) was 34.3%, the MCV (72 h, time 3 day) was 62.2 fL and the Mono (72 h, time 3 day) was 3.6%. The Neu (72 h, time 3 day) was 19.6%, the PT (72 h, time 3 day) was 12.8 s and the Plat (72 h, time 3 day) was 116.3 x10_4/uL. The RBC (72 h, time 3 day) was 627 x10_4/ul, the Ret (72 h, time 3 day) was 6.4% and the WBC (72 h, time 3 day) was 105.6 x10_2/uL. The KIDNEY_L (72 h, time 3 day) was 1.1 g, the KIDNEY_R (72 h, time 3 day) was 1.1 g and the KIDNEY_TOTAL (72 h, time 3 day) was 2.2 g. The LIVER (72 h, time 3 day) was 12.1 g, the ALP (72 h, time 3 day) was 1730.4 IU/L and the ALT (72 h, time 3 day) was 44.2 IU/L. For the same compound, the AST (72 h, time 3 day) was 70 IU/L, the BUN (72 h, time 3 day) was 15.4 mg/dL and the CRE (72 h, time 3 day) was 0.2 mg/dL. It also gave a DBIL (72 h, time 3 day) of 0.014 mg/dL, a GLC (72 h, time 3 day) of 190.6 mg/dL and an IP (72 h, time 3 day) of 7.8 mg/dL. It also gave a K (72 h, time 3 day) of 4 meq/L, an LDH (72 h, time 3 day) of 60.6 IU/L and a Na (72 h, time 3 day) of 143.4 meq/L. It also gave a PL (72 h, time 3 day) of 158 mg/dL, an RALB (72 h, time 3 day) of 2.7 g/dL and a TBIL (72 h, time 3 day) of 0.032 mg/dL. For the same compound, the TC (72 h, time 3 day) was 85.6 mg/dL, the TG (72 h, time 3 day) was 111.4 mg/dL and the TP (72 h, time 3 day) was 5.8 g/dL. The gamma-GTP (72 h, time 3 day) was 1 IU/L, the TERMINAL_BW ([…], time 7 day) was 289.5 g and the TERMINAL_BW ([…], time 14 day) was 341.4 g. The TERMINAL_BW ([…], time 28 day) was 418.9 g, the APTT ([…], time 7 day) was 17.2 s and the Bas ([…], time 7 day) was 0%. The Eos ([…], time 7 day) was 0.8%, the Fbg ([…], time 7 day) was 319.2 mg/dL and the Hb ([…], time 7 day) was 13.6 g/dL. It also gave a Ht ([…], time 7 day) of 38.7%, a Lym ([…], time 7 day) of 78.2% and an MCH ([…], time 7 day) of 21.4 pg. It also gave an MCHC ([…], time 7 day) of 35.1%, an MCV ([…], time 7 day) of 61 fL and a Mono ([…], time 7 day) of 3%. The Neu ([…], time 7 day) was 16.8%, the PT ([…], time 7 day) was 12.5 s and the Plat ([…], time 7 day) was 117.8 x10_4/uL. The RBC ([…], time 7 day) was 635.2 x10_4/ul, the Ret ([…], time 7 day) was 6% and the WBC ([…], time 7 day) was 108.5 x10_2/uL. For the same compound, the APTT ([…], time 14 day) was 17.8 s, the Bas ([…], time 14 day) was 0.2% and the Eos ([…], time 14 day) was 1%. For the same compound, the Fbg ([…], time 14 day) was 271.4 mg/dL, the Hb ([…], time 14 day) was 14.6 g/dL and the Ht ([…], time 14 day) was 42.4%. For the same compound, the Lym ([…], time 14 day) was 71.8%, the MCH ([…], time 14 day) was 21.1 pg and the MCHC ([…], time 14 day) was 34.4%. The MCV ([…], time 14 day) was 61.5 fL, the Mono ([…], time 14 day) was 2.8% and the Neu ([…], time 14 day) was 23.8%. For the same compound, the PT ([…], time 14 day) was 12.8 s, the Plat ([…], time 14 day) was 104.1 x10_4/uL and the RBC ([…], time 14 day) was 689 x10_4/ul. The Ret ([…], time 14 day) was 4.5%, the WBC ([…], time 14 day) was 82.7 x10_2/uL and the APTT ([…], time 28 day) was 18.5 s. The Bas ([…], time 28 day) was 0.6%, the Eos ([…], time 28 day) was 1.2% and the Fbg ([…], time 28 day) was 289 mg/dL. It also gave a Hb ([…], time 28 day) of 15.1 g/dL, a Ht ([…], time 28 day) of 43.5% and a Lym ([…], time 28 day) of 76.2%. For the same compound, the MCH ([…], time 28 day) was 20.2 pg, the MCHC ([…], time 28 day) was 34.8% and the MCV ([…], time 28 day) was 58.3 fL. The Mono ([…], time 28 day) was 3.2%, the Neu ([…], time 28 day) was 18.4% and the PT ([…], time 28 day) was 12.9 s. The Plat ([…], time 28 day) was 98.3 x10_4/uL, the RBC ([…], time 28 day) was 748.2 x10_4/ul and the Ret ([…], time 28 day) was 2.5%. The WBC ([…], time 28 day) was 98.7 x10_2/uL, the KIDNEY_L ([…], time 7 day) was 1.2 g and the KIDNEY_R ([…], time 7 day) was 1.2 g. The KIDNEY_TOTAL ([…], time 7 day) was 2.5 g, the KIDNEY_L ([…], time 14 day) was 1.3 g and the KIDNEY_R ([…], time 14 day) was 1.2 g. For the same compound, the KIDNEY_TOTAL ([…], time 14 day) was 2.4 g, the KIDNEY_L ([…], time 28 day) was 1.4 g and the KIDNEY_R ([…], time 28 day) was 1.4 g. It also gave a KIDNEY_TOTAL ([…], time 28 day) of 2.9 g, an LIVER ([…], time 7 day) of 13.1 g and an LIVER ([…], time 14 day) of 13.9 g. For the same compound, the LIVER ([…], time 28 day) was 16.1 g, the ALP ([…], time 7 day) was 1548.4 IU/L and the ALT ([…], time 7 day) was 43.4 IU/L. It also gave an AST ([…], time 7 day) of 69.8 IU/L, a BUN ([…], time 7 day) of 14.2 mg/dL and a CRE ([…], time 7 day) of 0.2 mg/dL. The DBIL ([…], time 7 day) was 0.012 mg/dL, the GLC ([…], time 7 day) was 188.4 mg/dL and the IP ([…], time 7 day) was 7.8 mg/dL. The K ([…], time 7 day) was 3.8 meq/L, the LDH ([…], time 7 day) was 64.6 IU/L and the Na ([…], time 7 day) was 143.2 meq/L. For the same compound, the PL ([…], time 7 day) was 149.2 mg/dL, the RALB ([…], time 7 day) was 2.7 g/dL and the TBIL ([…], time 7 day) was 0.034 mg/dL. For the same compound, the TC ([…], time 7 day) was 85.4 mg/dL, the TG ([…], time 7 day) was 86.8 mg/dL and the TP ([…], time 7 day) was 5.8 g/dL. The gamma-GTP ([…], time 7 day) was 1 IU/L, the ALP ([…], time 14 day) was 1377.6 IU/L and the ALT ([…], time 14 day) was 45.8 IU/L. It also gave an AST ([…], time 14 day) of 72.4 IU/L, a BUN ([…], time 14 day) of 15.2 mg/dL and a CRE ([…], time 14 day) of 0.2 mg/dL. It also gave a DBIL ([…], time 14 day) of 0.014 mg/dL, a GLC ([…], time 14 day) of 197 mg/dL and an IP ([…], time 14 day) of 6.9 mg/dL. The K ([…], time 14 day) was 3.7 meq/L, the LDH ([…], time 14 day) was 79.4 IU/L and the Na ([…], time 14 day) was 144.6 meq/L. For the same compound, the PL ([…], time 14 day) was 146.8 mg/dL, the RALB ([…], time 14 day) was 2.8 g/dL and the TBIL ([…], time 14 day) was 0.024 mg/dL. For the same compound, the TC ([…], time 14 day) was 74 mg/dL, the TG ([…], time 14 day) was 120.8 mg/dL and the TP ([…], time 14 day) was 6.2 g/dL. It also gave a gamma-GTP ([…], time 14 day) of 1 IU/L, an ALP ([…], time 28 day) of 1192 IU/L and an ALT ([…], time 28 day) of 43.2 IU/L. The AST ([…], time 28 day) was 67 IU/L, the BUN ([…], time 28 day) was 17 mg/dL and the CRE ([…], time 28 day) was 0.2 mg/dL. The DBIL ([…], time 28 day) was 0.022 mg/dL, the GLC ([…], time 28 day) was 199 mg/dL and the IP ([…], time 28 day) was 6.5 mg/dL. For the same compound, the K ([…], time 28 day) was 3.6 meq/L, the LDH ([…], time 28 day) was 63.8 IU/L and the Na ([…], time 28 day) was 142.4 meq/L. For the same compound, the PL ([…], time 28 day) was 151.2 mg/dL, the RALB ([…], time 28 day) was 2.8 g/dL and the TBIL ([…], time 28 day) was 0.036 mg/dL. For the same compound, the TC ([…], time 28 day) was 77.6 mg/dL and the TG ([…], time 28 day) was 143.2 mg/dL.
